Data set [1] can be described thus: Dynamic vapor sorption (DVS) testing of salt forms. In kind it is physicochemical. The method, then: Dynamic vapor sorption (DVS) testing was performed on several salt forms and sorption and desorption results under various relative humidity (RH) conditions are shown in Table 3.
A short description of data set [2]: Equilibrium solubility testing of salt forms. In kind it is physicochemical. The method, then:
Solubility testing was performed on several salt forms and results for free compound (mg) in media (ml) (represented as mg/ml) at equilibrium solubility are shown in Table 4. SIF refers to simulated intestinal fluid.

Consider `CO.CP(=O)(O)C(C(=O)N/C=C/c1ccc(F)c(F)c1)c1csc2ccc(Cl)cc12` (centres unmarked) [Form A], for which the Sorption in data set [1] (0-30% RH) is listed as 0-30% RH: 0.34%; in data set [1] (0-90% RH), 0-90% RH: 2.94%; in data set [1] (30-90% RH), 30-90% RH: 2.60%. The values for the Desorption in data set [1] (30-0% RH) and in data set [1] (90-30% RH) were 30-0% RH: 7.14% and 90-30% RH: 1.48%, respectively. Besides, the “Equilibrium solubility, free compound (mg) in media (ml)” value was 5.7 mg/mL in data set [2] (media 0.1N HCL, pH 1.50 (A), 1.40 (Compound 1b), 1.51 (B1)); 46.5 mg/mL in data set [2] (media 0.1N NaOH, pH 4.47 (A), 11.78 (Compound 1b), 8.88 (B1)); 18.7 mg/mL in data set [2] (media SIF (simulated intestinal fluid), pH 4.78 (A), 7.85 (Compound 1b), 7.65 (B1)).
Take `CP(=O)(O)C(C(=O)N/C=C/c1ccc(F)c(F)c1)c1csc2ccc(Cl)cc12.NC(CO)(CO)CO` (centres unmarked) [Form B1]: the “Equilibrium solubility, free compound (mg) in media (ml)” value in data set [2] (pH 1.5) was 1.7 mg/mL; in data set [2] (pH 4.47) it was 42.2 mg/mL; in data set [2] (pH 4.78), 14.6 mg/mL.
Turning to `CP(=O)(O)C(C(=O)N/C=C/c1ccc(F)c(F)c1)c1csc2ccc(Cl)cc12.NC(CO)(CO)CO` (centres unmarked) [Form B2], the Sorption in data set [1] (0-90% RH) is recorded as 0-90% RH: 2.085%. Moreover, the Desorption in data set [1] (90-0% RH) was 90-0% RH: 2.231%.
Turning to `CNC[C@H](O)[C@@H](O)[C@H](O)[C@H](O)CO.CP(=O)(O)C(C(=O)N/C=C/c1ccc(F)c(F)c1)c1csc2ccc(Cl)cc12` (centres unmarked) [Form C2], the Sorption is given as 0-80% RH: 3.68% in data set [1] (0-80% RH), 0-90% RH: 5.52% in data set [1] (0-90% RH) and 80-90% RH: 1.84% in data set [1] (80-90% RH). Moreover, the Desorption in data set [1] (10-0% RH) is listed as 10-0% RH: 2.75%; in data set [1] (90-0% RH) it was 90-0% RH: 6.66%; in data set [1] (90-10% RH), 90-10% RH: 3.91%. The “Solubility (remained in solution; equilibrium solubility could not be determined)” value in data set [2] (media not stated) was > 232 mg/mL.
For `CP(=O)([O-])C(C(=O)N/C=C/c1ccc(F)c(F)c1)c1csc2ccc(Cl)cc12.[K+]` (centres unmarked) [Form F1], the Sorption in data set [1] (0-60% RH) is recorded as 0-60% RH: 0.00%; in data set [1] (0-90% RH), 0-90% RH: 11.35%; in data set [1] (60-70% RH) it was 60-70% RH: 0.30%; in data set [1] (70-80% RH) it was 70-80% RH: 2.46%; in data set [1] (80-90% RH), 80-90% RH: 8.59%. Moreover, in data set [1] (90-0% RH), the Desorption is recorded as 90-0% RH: 16.81%.
As to `CP(=O)([O-])C(C(=O)N/C=C/c1ccc(F)c(F)c1)c1csc2ccc(Cl)cc12.[K+]` (centres unmarked) [Form F2], the Sorption in data set [1] (0-60% RH) is listed as 0-60% RH: 0.00%; in data set [1] (0-90% RH), 0-90% RH: 11.35%; in data set [1] (60-70% RH), 60-70% RH: 0.30%; in data set [1] (70-80% RH) it was 70-80% RH: 2.46%; in data set [1] (80-90% RH) it was 80-90% RH: 8.59%. Besides, the Desorption in data set [1] (90-0% RH) is recorded as 90-0% RH: 16.81%.
Consider `CP(=O)([O-])C(C(=O)N/C=C/c1ccc(F)c(F)c1)c1csc2ccc(Cl)cc12.[K+]` (centres unmarked) [Form F3], for which the Sorption is given as 0-60% RH: 0.00% in data set [1] (0-60% RH); 0-90% RH: 11.35% in data set [1] (0-90% RH); 60-70% RH: 0.30% in data set [1] (60-70% RH); 70-80% RH: 2.46% in data set [1] (70-80% RH); 80-90% RH: 8.59% in data set [1] (80-90% RH). For the same compound, in data set [1] (90-0% RH), the Desorption is 90-0% RH: 16.81%.

The record behind these values is patent publication US20080097110A1, “Salt forms of substituted benzothienyl compounds” (priority 2006, published 2008).
